From EP0376518B1, “Phospholipid nucleosides” (ELI LILLY AND COMPANY, priority 1988, dated 1990)

Columns and labels:
Format in all cases: in vivo
colon carcinoma 26 = test: Test 5: colon carcinoma 26 in mice; conditions: for Toxicity (number of animals which exhibited signs of toxicity): group of 10 mice; for Inhibition (percent inhibition of tumor growth): tumors measured day 13
Text: (§1) Representative compounds of the invention have been tested using murine tumors in female mice to determine their antineoplastic efficacy. Several different tumor systems have been used in these tests, and the compounds have been administered on a number of different dosage schedules. In general, all the tests were started by inoculating female mice with the tumor, subcutaneously. After some number of days delay, intraperitoneal administration of the test compound was begun. Each treatment group consisted of 10 mice, and untreated control groups were included in all experiments. At the completion of the treatment period, the tumors of the control and the treated mice were measured and the mass of them calculated from the measurements. The data are reported here as percent inhibition of tumor growth, based on the tumors of the untreated control mice.
The compound of Example 2 was tested against colon carcinoma 26, giving doses on days 3, 8 and 11 after inoculation, and measuring the tumors on day 13.

M-5 ovarian carcinoma [1] = test: Test 3: M-5 ovarian carcinoma in mice, daily dose; conditions: for Toxicity (number of animals which exhibited signs of toxicity): group of 10 mice; for Inhibition (percent inhibition of tumor growth): tumors measured day 15
Text: as §1
The compound of Example 2 was tested against M-5 ovarian carcinoma, giving a daily dose from day 5 to day 14 after inoculation. The tumors were measured on day 15.

Madison lung carcinoma = test: Test 8: Madison lung carcinoma in mice; conditions: for Toxicity (number of animals which exhibited signs of toxicity): group of 10 mice; for Inhibition (percent inhibition of tumor growth): tumors measured day 11
Text: as §1
The compound of Example 2 was tested against Madison lung carcinoma, giving doses on days 1, 5 and 9 after inoculation and measuring the tumors on day 11.

6C3HED lymphosarcoma = test: Test 4: 6C3HED lymphosarcoma in mice; conditions: for Toxicity (number of animals which exhibited signs of toxicity): group of 10 mice; for Inhibition (percent inhibition of tumor growth): tumors measured day 10
Text: as §1
The compound of Example 2 was tested against 6C3HED lymphosarcoma, giving a dose on days 1, 5 and 9 after inoculation, and measuring the tumors on day 10.

[2] = system: C3H mammary adenocarcinoma; test: Test 7: C3H mammary adenocarcinoma in mice; conditions: for Toxicity (number of animals which exhibited signs of toxicity): group of 10 mice; for Inhibition (percent inhibition of tumor growth): tumors measured day 11
Text: as §1
The compound of Example 2 was tested against C3H mammary adenocarcinoma, giving does on days 1, 5 and 9 after inoculation and measuring the tumors on day 11.

M-5 ovarian carcinoma [3] = test: Test 1: M-5 ovarian carcinoma in mice, single dose; conditions: single dose two days after inoculation; for Toxicity (number of animals which exhibited signs of toxicity): group of 10 mice; for Inhibition (percent inhibition of tumor growth): tumors measured 13 days after inoculation
Text: as §1
The tumor in this test was M-5 ovarian carcinoma; the compounds were administered as a single dose, two days after inoculation, and the tumors were measured 13 days after inoculation.

[4] = system: X-5563 plasma cell myeloma; test: Test 6: X-5563 plasma cell myeloma in mice; conditions: for Toxicity (number of animals which exhibited signs of toxicity): group of 10 mice; for Inhibition (percent inhibition of tumor growth): tumors measured day 11
Text: as §1
The compound of Example 2 was tested against X-5563 plasma cell myeloma, giving doses on days 1, 5 and 9 after inoculation and measuring the tumors on day 11.

M-5 ovarian carcinoma [5] = test: Test 2: M-5 ovarian carcinoma in mice, three doses; conditions: for Toxicity (number of animals which exhibited signs of toxicity): group of 10 mice; for Inhibition (percent inhibition of tumor growth): tumors measured day 15
Text: as §1
The compound of Example 2 was tested against M-5 ovarian carcinoma. Three doses were administered on days 5, 10 and 13 after inoculation, and the tumors were measured on day 15.

Lewis lung carcinoma = test: Test 9: Lewis lung carcinoma in mice; conditions: for Toxicity (number of animals which exhibited signs of toxicity): group of 10 mice; for Inhibition (percent inhibition of tumor growth): tumors measured day 11
Text: as §1
The compound of Example 2 was tested against Lewis lung carcinoma, giving doses on days 1, 5 and 9 after inoculation and measuring the tumors on day 11.

[6] = 1.8 mg/kg intraperitoneal on days 3, 8 and 11 after inoculation
[7] = 3.8 mg/kg intraperitoneal on days 3, 8 and 11 after inoculation
[8] = 7.5 mg/kg intraperitoneal on days 3, 8 and 11 after inoculation
[9] = 15 mg/kg intraperitoneal on days 3, 8 and 11 after inoculation
[10] = 30 mg/kg intraperitoneal on days 3, 8 and 11 after inoculation
[11] = 0.6 mg/kg intraperitoneal daily from day 5 to day 14 after inoculation
[12] = 1.2 mg/kg intraperitoneal daily from day 5 to day 14 after inoculation
[13] = 2.5 mg/kg intraperitoneal daily from day 5 to day 14 after inoculation
[14] = 5 mg/kg intraperitoneal daily from day 5 to day 14 after inoculation
[15] = 1.8 mg/kg intraperitoneal on days 1, 5 and 9 after inoculation
[16] = 3.8 mg/kg intraperitoneal on days 1, 5 and 9 after inoculation
[17] = 7.5 mg/kg intraperitoneal on days 1, 5 and 9 after inoculation
[18] = 15 mg/kg intraperitoneal on days 1, 5 and 9 after inoculation
[19] = 30 mg/kg intraperitoneal on days 1, 5 and 9 after inoculation
[20] = 1.8 mg/kg intraperitoneal on days 5, 10 and 13 after inoculation
[21] = 3.8 mg/kg intraperitoneal on days 5, 10 and 13 after inoculation
[22] = 7.5 mg/kg intraperitoneal on days 5, 10 and 13 after inoculation
[23] = 15 mg/kg intraperitoneal on days 5, 10 and 13 after inoculation
[24] = 30 mg/kg intraperitoneal on days 5, 10 and 13 after inoculation

## CCCCCCCCCCCCCCCC(=O)OC[C@H](COP(=O)(O)OP(=O)(O)OC[C@H]1O[C@@H](n2ccc(N)nc2=O)C(F)(F)[C@@H]1O)OC(=O)CCCCCCCCCCCCCCC [Example 2]
Colon carcinoma 26; [6]
  Toxicity (number of animals which exhibited signs of toxicity): 0/10
  Inhibition (percent inhibition of tumor growth): 0%
Colon carcinoma 26; [7]
  Toxicity (number of animals which exhibited signs of toxicity): 0/10
  Inhibition (percent inhibition of tumor growth): 21%
Colon carcinoma 26; [8]
  Toxicity (number of animals which exhibited signs of toxicity): 0/10
  Inhibition (percent inhibition of tumor growth): 28%
Colon carcinoma 26; [9]
  Toxicity (number of animals which exhibited signs of toxicity): 0/10
  Inhibition (percent inhibition of tumor growth): 66%
Colon carcinoma 26; [10]
  Toxicity (number of animals which exhibited signs of toxicity): 8/10
  Inhibition (percent inhibition of tumor growth): 89%
M-5 ovarian carcinoma [1]; [11]
  Toxicity (number of animals which exhibited signs of toxicity): 0/10
  Inhibition (percent inhibition of tumor growth): 42%
M-5 ovarian carcinoma [1]; [12]
  Toxicity (number of animals which exhibited signs of toxicity): 0/10
  Inhibition (percent inhibition of tumor growth): 58%
M-5 ovarian carcinoma [1]; [13]
  Toxicity (number of animals which exhibited signs of toxicity): 0/10
  Inhibition (percent inhibition of tumor growth): 69%
M-5 ovarian carcinoma [1]; [14]
  Toxicity (number of animals which exhibited signs of toxicity): 0/10
  Inhibition (percent inhibition of tumor growth): 100%
M-5 ovarian carcinoma [1]; 10 mg/kg intraperitoneal daily from day 5 to day 14 after inoculation
  Toxicity (number of animals which exhibited signs of toxicity): 10/10
Madison lung carcinoma; [15]
  Toxicity (number of animals which exhibited signs of toxicity): 0/10
  Inhibition (percent inhibition of tumor growth): 12%
Madison lung carcinoma; [16]
  Toxicity (number of animals which exhibited signs of toxicity): 0/10
  Inhibition (percent inhibition of tumor growth): 18%
Madison lung carcinoma; [17]
  Toxicity (number of animals which exhibited signs of toxicity): 0/10
  Inhibition (percent inhibition of tumor growth): 33%
Madison lung carcinoma; [18]
  Toxicity (number of animals which exhibited signs of toxicity): 0/10
  Inhibition (percent inhibition of tumor growth): 68%
Madison lung carcinoma; [19]
  Toxicity (number of animals which exhibited signs of toxicity): 4/10
  Inhibition (percent inhibition of tumor growth): 76%
6C3HED lymphosarcoma; [15]
  Toxicity (number of animals which exhibited signs of toxicity): 0/10
  Inhibition (percent inhibition of tumor growth): 21%
6C3HED lymphosarcoma; [16]
  Toxicity (number of animals which exhibited signs of toxicity): 0/10
  Inhibition (percent inhibition of tumor growth): 32%
6C3HED lymphosarcoma; [17]
  Toxicity (number of animals which exhibited signs of toxicity): 0/10
  Inhibition (percent inhibition of tumor growth): 47%
6C3HED lymphosarcoma; [18]
  Toxicity (number of animals which exhibited signs of toxicity): 0/10
  Inhibition (percent inhibition of tumor growth): 60%
6C3HED lymphosarcoma; [19]
  Toxicity (number of animals which exhibited signs of toxicity): 7/10
  Inhibition (percent inhibition of tumor growth): 98%
[2]; [15]
  Toxicity (number of animals which exhibited signs of toxicity): 0/10
  Inhibition (percent inhibition of tumor growth): 0%
[2]; [16]
  Toxicity (number of animals which exhibited signs of toxicity): 0/10
  Inhibition (percent inhibition of tumor growth): 0%
[2]; [17]
  Toxicity (number of animals which exhibited signs of toxicity): 0/10
  Inhibition (percent inhibition of tumor growth): 22%
[2]; [18]
  Toxicity (number of animals which exhibited signs of toxicity): 0/10
  Inhibition (percent inhibition of tumor growth): 60%
[2]; [19]
  Toxicity (number of animals which exhibited signs of toxicity): 6/10
  Inhibition (percent inhibition of tumor growth): 100%
M-5 ovarian carcinoma [3]; 25 mg/kg intraperitoneal
  Toxicity (number of animals which exhibited signs of toxicity): 0/10
  Inhibition (percent inhibition of tumor growth): 72%
M-5 ovarian carcinoma [3]; 50 mg/kg intraperitoneal
  Toxicity (number of animals which exhibited signs of toxicity): 4/10
  Inhibition (percent inhibition of tumor growth): 87%
[4]; [15]
  Toxicity (number of animals which exhibited signs of toxicity): 0/10
  Inhibition (percent inhibition of tumor growth): 0%
[4]; [16]
  Toxicity (number of animals which exhibited signs of toxicity): 0/10
  Inhibition (percent inhibition of tumor growth): 2%
[4]; [17]
  Toxicity (number of animals which exhibited signs of toxicity): 0/10
  Inhibition (percent inhibition of tumor growth): 68%
[4]; [18]
  Toxicity (number of animals which exhibited signs of toxicity): 1/10
  Inhibition (percent inhibition of tumor growth): 84%
[4]; [19]
  Toxicity (number of animals which exhibited signs of toxicity): 9/10
  Inhibition (percent inhibition of tumor growth): 100%
M-5 ovarian carcinoma [5]; [20]
  Toxicity (number of animals which exhibited signs of toxicity): 0/10
  Inhibition (percent inhibition of tumor growth): 22%
M-5 ovarian carcinoma [5]; [21]
  Toxicity (number of animals which exhibited signs of toxicity): 0/10
  Inhibition (percent inhibition of tumor growth): 55%
M-5 ovarian carcinoma [5]; [22]
  Toxicity (number of animals which exhibited signs of toxicity): 0/10
  Inhibition (percent inhibition of tumor growth): 61%
M-5 ovarian carcinoma [5]; [23]
  Toxicity (number of animals which exhibited signs of toxicity): 0/10
  Inhibition (percent inhibition of tumor growth): 92%
M-5 ovarian carcinoma [5]; [24]
  Toxicity (number of animals which exhibited signs of toxicity): 2/10
  Inhibition (percent inhibition of tumor growth): 99%
Lewis lung carcinoma; [15]
  Toxicity (number of animals which exhibited signs of toxicity): 0/10
  Inhibition (percent inhibition of tumor growth): 6%
Lewis lung carcinoma; [16]
  Toxicity (number of animals which exhibited signs of toxicity): 0/10
  Inhibition (percent inhibition of tumor growth): 0%
Lewis lung carcinoma; [17]
  Toxicity (number of animals which exhibited signs of toxicity): 0/10
  Inhibition (percent inhibition of tumor growth): 0%
Lewis lung carcinoma; [18]
  Toxicity (number of animals which exhibited signs of toxicity): 0/10
  Inhibition (percent inhibition of tumor growth): 0%
Lewis lung carcinoma; [19]
  Toxicity (number of animals which exhibited signs of toxicity): 4/10
  Inhibition (percent inhibition of tumor growth): 41%

## CCCCCCCCCCCCCCCCCCC(COP(=O)(O)OP(=O)(O)OC[C@H]1O[C@@H](n2ccc(N)nc2=O)C(F)(F)[C@@H]1O)OCC (stereo partly drawn) [Example 3, 2′-Deoxy-2′,2′-difluorocytidine, 5′-(dihydrogen diphosphate), P′-(2-ethoxyeicosyl) ester]
M-5 ovarian carcinoma [3]; 50 mg/kg intraperitoneal
  Toxicity (number of animals which exhibited signs of toxicity): 0/10
  Inhibition (percent inhibition of tumor growth): 53%
M-5 ovarian carcinoma [3]; 100 mg/kg intraperitoneal
  Toxicity (number of animals which exhibited signs of toxicity): 0/10
  Inhibition (percent inhibition of tumor growth): 64%
